In ChEMBL document CHEMBL6134909 (Eur J Med Chem, 2025):
Active and inactive are the calls of the source. No cut-off for these calls is given here.

Columns and labels:
[1] = tested on: Influenza A virus; assay: (§1) Anti-viral activity against Influenza A virus H3N2 A/Hong Kong/11/1968 infected in human A549 cells assessed as log reduction in viral titer at 1 uM incubated with compound and virus for 1 hr followed by inoculum removal and media replacement with compound measured after 48 hrs by extracting viral supernatant from cells and transferring supernatant to MDCK cells for measuring plaque formation; assay type: functional; conditions: time 49 hrs
[2] = tested on: Influenza A virus; assay: as §1, with “decrease” for “log reduction”, “replication” for “titer”; assay type: functional, organism-based; conditions: time 49.0 hrs

In the case of `Oc1ccc(-c2nc3ncccn3c2NC2CCCCC2)c(F)c1`, the log10PFU/ml [1] is reported as 1.5 and the Activity [2] is reported as “Active”.
For `COc1ccc(-c2nc3ncccn3c2NC2CCCCC2)cc1`, the Activity [2] was “Active”.
In the case of `Cc1cc(C)n2c(NC3CCCCC3)c(-c3ccnc(Cl)c3)nc2n1`, the Activity [2] is reported as “Active”.
With `COCOc1ccc(-c2nc3ncccn3c2NC2CCCCC2)c(F)c1` the log10PFU/ml [1] was 1.5 and the Activity [2] was “Active”.
`Fc1cc(OCc2ccc(C(F)(F)F)cc2)ccc1-c1nc2ncccn2c1NC1CCCCC1` was tested, and the log10PFU/ml [1] was 1.5 and the Activity [2] was “Active”.
With `Fc1ccc(-c2nc3ncccn3c2NC2CCCCC2)cc1N1CCOCC1` the log10PFU/ml [1] was 1.5 and the Activity [2] was “Active”.
`COc1cc(OC)cc(-c2nc3ncccn3c2NC2CCCCC2)c1` was tested, and the log10PFU/ml [1] was 1.5 and the Activity [2] was “Active”.
`CCOC(=O)c1c(CSc2ccccc2)n(C)c2cc(Br)c(O)c(CN(C)C)c12` [UMIFENOVIR] was tested, and the log10PFU/ml [1] was 1.5 and the Activity [2] was “Active”.
In the case of `Clc1cnc2nc(-c3ccccc3)c(NC3CCCCC3)n2c1`, the log10PFU/ml [1] is reported as 1.5 and the Activity [2] is reported as “Active”.
For `CN1CCN(c2ccc(-c3nc4ncc(Cl)cn4c3NC3CCCCC3)c(F)c2)CC1`, the Activity [2] was “Active”.
For `Fc1ccc(-c2nc3ncccn3c2NC2CCCCC2)cc1F`, the Activity [2] was “Active”.
